One data set concerns serotonin 5HT1A receptor. Also on record: method as in PMID 17574977. As to conditions: inhibitor of CYP2E1; cited from earlier work.
The nature of data set [1]: Human liver microsomal metabolism in the presence of cytochrome P450 diagnostic inhibitors. Format: in vitro ADME. As to conditions: PiB 1.0 μM, 60 min. How it is done: (§1) After a 10 min preincubation at 37°C, the reaction was initiated by addition of 0.15 mM NADP and further incubated for either 15 or 60 min. The reactions were terminated by the addition of two volumes DMSO. Samples were subsequently centrifuged at 4,000 rpm for 10 min. From the resulting supernatant, 10 μL was analyzed by LC-MS/MS.
(§2) Quantification was performed on a TSQ-Vantage instrument (Thermofisher Scientific, Bremen, Germany), fitted with an electrospray ionization source. […] Elution was performed on a Waters XBridge C18 column (3 × 2.1 mm, 2.5 μm; Waters, Boston MA, USA). Solvents A (0.1% formic acid in water) and B (0.1% formic acid in acetonitrile) were used at a flow rate of 500 μL/min. […] The final ratio was held for a further 0.6 min and then reduced again to 5% B over 0.05 min. Data was processed using QuickQuan (Thermofisher Scientific, Bremen, Germany).
Qualitative high resolution LC/MS data was acquired on a Waters Premier hybrid quadrupole time-of-flight (QToF) mass spectrometer (Waters, Boston MA, USA) equipped with a liquid chromatography system, using a 10 min gradient method and an Acquity UPLC BEH C18 (2.1 × 100 mm, 1.7 μm) column (Waters, Boston MA). The QToF Premier operated with a cone voltage of 30 eV and collision energy of 30 eV. […] The final ratio was held for 2 min and then reduced again to 5% B over 1 min. Interpretation of data was performed with Metabolynx software (Waters, Boston, MA, USA).
(In general: Liver microsomes are vesicles of endoplasmic reticulum, rich in cytochrome P450 enzymes.)

Another data set has as its target T1, rhCYP1A2 (Homo sapiens, UniProt P05177).
T1 construct: purchased BD Gentest (Woburn, MA, USA); host or cells: Baculovirus transfected insect cell system
T1 sequence (P05177 1-516): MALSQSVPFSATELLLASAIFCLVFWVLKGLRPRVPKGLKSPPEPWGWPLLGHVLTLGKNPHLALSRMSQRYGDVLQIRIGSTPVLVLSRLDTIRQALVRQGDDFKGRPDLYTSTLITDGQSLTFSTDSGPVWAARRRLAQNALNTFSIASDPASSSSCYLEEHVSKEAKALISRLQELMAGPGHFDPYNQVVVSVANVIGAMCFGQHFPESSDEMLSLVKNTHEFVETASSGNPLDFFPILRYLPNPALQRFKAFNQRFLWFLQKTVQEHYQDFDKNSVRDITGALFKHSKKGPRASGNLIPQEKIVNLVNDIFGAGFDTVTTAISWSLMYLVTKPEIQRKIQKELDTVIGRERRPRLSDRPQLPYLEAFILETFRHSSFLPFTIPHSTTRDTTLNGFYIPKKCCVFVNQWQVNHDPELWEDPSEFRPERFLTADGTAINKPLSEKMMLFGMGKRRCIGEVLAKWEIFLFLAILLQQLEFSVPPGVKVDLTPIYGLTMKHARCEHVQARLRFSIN
Kind of data set: Incubation with recombinantly expressed CYP1A2. Format: in vitro ADME. How it is done:
as §2, with “After a 10 min preincubation at 37°C, the reaction was initiated by addition of 2.0 mM NADPH and incubated for 15 and 60 min. The reactions were terminated by the addition of two volumes of DMSO. Samples were subsequently centrifuged at 4,000 rpm for 10 min. From the resulting supernatant, 10 μL was analysed by liquid chromatography/tandem mass spectrometry (LC-MS/MS). […] Quantification” for “Quantification”

In data set [2] the test system is rhCYPs 1A2, 2C9, 2C19, 2D6, and 3A4. Kind of data set: Metabolite profiling of rhCYP incubations. Format: in vitro ADME, human. As to conditions: qualitative LC/MS. The protocol: After a 10 min preincubation at 37°C, the reaction was initiated by addition of 2.0 mM NADPH and incubated for 15 and 60 min. The reactions were terminated by the addition of two volumes of DMSO. Samples were subsequently centrifuged at 4,000 rpm for 10 min. From the resulting supernatant, 10 μL was analysed by liquid chromatography/tandem mass spectrometry (LC-MS/MS). Control experiments were performed by substituting the active enzyme preparation by insect cell preparations containing no rhCYP.
Qualitative high resolution LC/MS data was acquired on a Waters Premier hybrid quadrupole time-of-flight (QToF) mass spectrometer (Waters, Boston MA, USA) equipped with a liquid chromatography system, using a 10 min gradient method and an Acquity UPLC BEH C18 (2.1 × 100 mm, 1.7 μm) column (Waters, Boston MA). The QToF Premier operated with a cone voltage of 30 eV and collision energy of 30 eV. The gradient employed was 95% solvent A (25 mM ammonium acetate, pH = 9) as the start condition followed by a linear ramp of organic phase concentration from 5% B (25 mM ammonium acetate/MeOH/acetonitrile 10/10/80) to 95% B over 6.5 min. The final ratio was held for 2 min and then reduced again to 5% B over 1 min. Interpretation of data was performed with Metabolynx software (Waters, Boston, MA, USA).

A further data set addresses T2, rhCYP 2D6 (Homo sapiens, UniProt P10635).
T2 construct: purchased BD Gentest (Woburn, MA, USA); host or cells: Baculovirus transfected insect cell system
Kind of data set: Incubation with recombinantly expressed CYP2D6. Format: in vitro ADME. How it is done:
as §2, with “After a 10 min preincubation at 37°C, the reaction was initiated by addition of 2.0 mM NADPH and incubated for 15 and 60 min. The reactions were terminated by the addition of two volumes of DMSO. Samples were subsequently centrifuged at 4,000 rpm for 10 min. From the resulting supernatant, 10 μL was analysed by liquid chromatography/tandem mass spectrometry (LC-MS/MS). […] Quantification” for “Quantification”

Data set [3] in a line: Human liver microsomal metabolism (no inhibitor). As to conditions: HLM incubations from phenotyping experiments, qualitative LC/MS. Format: in vitro ADME. The protocol:
as §1, §2
Qualitative high resolution LC/MS data was acquired on a Waters Premier hybrid quadrupole time-of-flight (QToF) mass spectrometer (Waters, Boston MA, USA) equipped with a liquid chromatography system, using a 10 min gradient method and an Acquity UPLC BEH C18 (2.1 × 100 mm, 1.7 μm) column (Waters, Boston MA). The QToF Premier operated with a cone voltage of 30 eV and collision energy of 30 eV. […] The final ratio was held for 2 min and then reduced again to 5% B over 1 min. […]

The next data set has as its target T3, rhCYP 3A4 (Homo sapiens, UniProt P08684).
T3 construct: purchased BD Gentest (Woburn, MA, USA); host or cells: Baculovirus transfected insect cell system
The data set can be described thus: Incubation with recombinantly expressed CYP3A4. Format: in vitro ADME. The protocol:
as §2, with “After a 10 min preincubation at 37°C, the reaction was initiated by addition of 2.0 mM NADPH and incubated for 15 and 60 min. The reactions were terminated by the addition of two volumes of DMSO. Samples were subsequently centrifuged at 4,000 rpm for 10 min. From the resulting supernatant, 10 μL was analysed by liquid chromatography/tandem mass spectrometry (LC-MS/MS). […] Quantification” for “Quantification”

The next data set addresses T4, rhCYP 2C9 (Homo sapiens, UniProt P11712).
T4 construct: purchased BD Gentest (Woburn, MA, USA); host or cells: Baculovirus transfected insect cell system
Kind of data set: Incubation with recombinantly expressed CYP2C9. Format: in vitro ADME. The protocol:
as §2, with “After a 10 min preincubation at 37°C, the reaction was initiated by addition of 2.0 mM NADPH and incubated for 15 and 60 min. The reactions were terminated by the addition of two volumes of DMSO. Samples were subsequently centrifuged at 4,000 rpm for 10 min. From the resulting supernatant, 10 μL was analysed by liquid chromatography/tandem mass spectrometry (LC-MS/MS). […] Quantification” for “Quantification”

For another data set, the target named is T5, rhCYP 2C19 (Homo sapiens, UniProt P33261).
T5 construct: purchased BD Gentest (Woburn, MA, USA); host or cells: Baculovirus transfected insect cell system
T5 sequence (P33261 whole entry): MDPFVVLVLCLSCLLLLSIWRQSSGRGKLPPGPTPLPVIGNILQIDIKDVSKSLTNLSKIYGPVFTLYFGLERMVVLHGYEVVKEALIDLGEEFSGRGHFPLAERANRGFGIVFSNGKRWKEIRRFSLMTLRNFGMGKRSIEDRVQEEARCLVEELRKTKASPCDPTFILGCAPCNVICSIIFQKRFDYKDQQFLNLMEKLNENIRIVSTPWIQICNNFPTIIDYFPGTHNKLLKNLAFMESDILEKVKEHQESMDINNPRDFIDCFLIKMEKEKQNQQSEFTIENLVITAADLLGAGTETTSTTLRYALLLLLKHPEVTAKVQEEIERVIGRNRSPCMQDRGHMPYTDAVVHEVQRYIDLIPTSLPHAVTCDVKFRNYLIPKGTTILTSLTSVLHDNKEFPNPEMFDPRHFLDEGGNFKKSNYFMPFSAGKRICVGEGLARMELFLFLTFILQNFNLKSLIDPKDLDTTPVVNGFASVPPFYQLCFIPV
The data set can be described thus: Incubation with recombinantly expressed CYP2C19. Format: in vitro ADME. The protocol:
as §2, with “After a 10 min preincubation at 37°C, the reaction was initiated by addition of 2.0 mM NADPH and incubated for 15 and 60 min. The reactions were terminated by the addition of two volumes of DMSO. Samples were subsequently centrifuged at 4,000 rpm for 10 min. From the resulting supernatant, 10 μL was analysed by liquid chromatography/tandem mass spectrometry (LC-MS/MS). […] Quantification” for “Quantification”

The mark [4] stands for this setting: PiB 1.0 μM, rhCYP 100 pmol/mL, 15 and 60 min.
Where [5] appears, read: scaled for approximate relative abundances of CYP isoforms in human liver [10].

Each structure is given as a SMILES string. Entries after “also recorded” stand apart in the source; their conditions may differ.

T3 sequence (P08684 whole entry): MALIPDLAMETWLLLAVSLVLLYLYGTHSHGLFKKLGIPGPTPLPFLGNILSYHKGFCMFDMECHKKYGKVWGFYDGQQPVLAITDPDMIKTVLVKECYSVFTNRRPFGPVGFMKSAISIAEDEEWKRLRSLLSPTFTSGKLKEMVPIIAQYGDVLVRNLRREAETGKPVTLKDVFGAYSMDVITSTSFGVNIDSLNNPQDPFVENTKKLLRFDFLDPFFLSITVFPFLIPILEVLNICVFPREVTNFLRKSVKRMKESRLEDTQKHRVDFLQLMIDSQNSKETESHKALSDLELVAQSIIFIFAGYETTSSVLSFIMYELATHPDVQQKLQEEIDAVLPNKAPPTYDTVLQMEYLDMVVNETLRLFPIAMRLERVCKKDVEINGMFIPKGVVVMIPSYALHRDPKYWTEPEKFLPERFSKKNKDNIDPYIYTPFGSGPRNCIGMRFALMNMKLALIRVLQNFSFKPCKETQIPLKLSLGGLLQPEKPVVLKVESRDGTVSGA
T4 sequence (P11712 whole entry): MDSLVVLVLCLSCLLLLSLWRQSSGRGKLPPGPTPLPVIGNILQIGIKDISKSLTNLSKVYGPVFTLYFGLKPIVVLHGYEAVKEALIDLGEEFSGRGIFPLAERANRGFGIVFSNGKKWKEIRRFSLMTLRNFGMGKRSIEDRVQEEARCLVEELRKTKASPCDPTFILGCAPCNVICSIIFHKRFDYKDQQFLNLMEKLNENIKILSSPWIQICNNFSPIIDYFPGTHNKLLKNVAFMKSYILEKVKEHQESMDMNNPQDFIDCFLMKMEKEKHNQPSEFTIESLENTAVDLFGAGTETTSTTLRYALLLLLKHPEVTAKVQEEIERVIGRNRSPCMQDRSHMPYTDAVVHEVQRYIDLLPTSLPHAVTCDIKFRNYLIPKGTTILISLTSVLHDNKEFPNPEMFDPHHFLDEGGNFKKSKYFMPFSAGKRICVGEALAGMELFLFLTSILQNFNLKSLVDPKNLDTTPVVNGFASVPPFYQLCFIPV
T2 sequence (P10635 whole entry): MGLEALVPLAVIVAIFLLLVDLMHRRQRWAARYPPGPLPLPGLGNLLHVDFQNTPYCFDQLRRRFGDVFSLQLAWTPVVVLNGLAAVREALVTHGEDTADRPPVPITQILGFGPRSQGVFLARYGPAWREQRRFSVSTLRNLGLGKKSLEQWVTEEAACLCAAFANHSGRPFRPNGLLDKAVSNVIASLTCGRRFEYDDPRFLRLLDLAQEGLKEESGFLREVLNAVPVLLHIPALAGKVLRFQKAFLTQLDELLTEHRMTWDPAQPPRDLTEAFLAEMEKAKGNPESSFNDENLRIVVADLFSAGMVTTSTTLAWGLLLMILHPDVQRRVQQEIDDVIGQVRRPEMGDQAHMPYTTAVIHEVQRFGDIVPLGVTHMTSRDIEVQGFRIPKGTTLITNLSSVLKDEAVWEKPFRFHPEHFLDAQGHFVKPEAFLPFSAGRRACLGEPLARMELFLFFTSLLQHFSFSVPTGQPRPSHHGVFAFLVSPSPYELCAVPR

Turning to `COc1ccccc1N1CCN(CCN(C(=O)C2CCC(F)CC2)c2ccccn2)CC1` (stereo not drawn) [FCWAY], the “metabolism after pretreatment with disulfuram” value in the data set with serotonin 5HT1A receptor is reported as “significantly reduced”.
As to `CNc1ccc(-c2nc3ccc(O)cc3s2)cc1` [PiB], the “change in HLM turnover with inhibitor of CYP1A2” value in data set [1] (alpha-naphthoflavone 3 μM) is “significant reduction”. In data set [1] (benzylphenobarbital 1 μM), the “change in HLM turnover with inhibitor of CYP2C19” value is given as “reduction in turnover is also apparent”. The “change in HLM turnover with inhibitor of CYP3A4” value in data set [1] (ketoconazole 1 μM) was “significant reduction”. The “change in HLM turnover with inhibitor of CYP2D6” value in data set [1] (quinidine 3 μM) is recorded as “reduction in turnover is also apparent”. In addition, the “change in HLM turnover with inhibitor of CYP2C9” value in [1] (sulfaphenazole 10 μM) is recorded as “reduction in turnover is also apparent”. On rhCYP1A2 (setting [4]), the “observed turnover with rhCYP1A2” value is listed as “substrate; also recorded: high turnover”. Besides, the “contribution of CYP1A2 to metabolism after scaling” value at rhCYP1A2 (setting [5]) is “primarily metabolized”. In addition, the “drug-related species observed in rhCYP incubations” value in data set [2] is listed as “desmethyl metabolite”. On rhCYP 2D6 (setting [4]), the “observed turnover with rhCYP2D6” value is “substrate”. Besides, the “contribution of CYP2D6 to metabolism after scaling” value at rhCYP 2D6 (setting [5]) was “only minor contributions”. In addition, the “drug-related species detected in HLM” value in [3] is given as “desmethyl metabolite”. Moreover, the “observed turnover with rhCYP3A4” value at rhCYP 3A4 (setting [4]) is “substrate; also recorded: high turnover”. Further, at rhCYP 3A4 (setting [5]), the “contribution of CYP3A4 to metabolism after scaling” value is “primarily metabolized”. Further, the “observed turnover with rhCYP2C9” value at rhCYP 2C9 (setting [4]) is “substrate”. Further, at rhCYP 2C9 (setting [5]), the “contribution of CYP2C9 to metabolism after scaling” value is reported as “primarily metabolized”. At rhCYP 2C19 (setting [4]), the “observed turnover with rhCYP2C19” value is given as “substrate”. For the same compound, at rhCYP 2C19 (setting [5]), the “contribution of CYP2C19 to metabolism after scaling” value is “only minor contributions”.

The values are drawn from paper PMC3599558, “Profiling of hepatic clearance pathways of Pittsburgh compound B and human liver cytochrome p450 phenotyping” (EJNMMI Research, 2013).
